# According to PubChem BioAssay (NCI):
# Where “and” joins values, the source holds several entries; their conditions need not be identical. Equal values may be shown once.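 Step 1: Grow cells in 96-well plates. Step 2: Expose to compound for 48 hours at 5 concentrations. Step 3: Interpolate endpoints linearly; if unreached, use highest concentration. Abbreviation: GI50, concentration required for 50% inhibition of growth. The concentration for full growth arrest is given as TGI.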
# How the values were obtained:
# Assay in all cases: NCI-60 cell line screen, 48 h
# [1] = system: SK-MEL-28 melanoma
# [2] = system: SNB-19 CNS
# [3] = system: COLO 205 colon
# [4] = system: NCI/ADR-RES ovarian
# [5] = system: TK-10 renal
# [6] = system: HT29 colon
# [7] = system: RPMI-8226 leukemia
# [8] = system: A498 renal
# [9] = system: OVCAR-4 ovarian
# [10] = system: NCI-H522 lung
SMILES,TGI [1],TGI [2],TGI [3],TGI [4],TGI [5],TGI [6],TGI [7],TGI [8],TGI [9],TGI [10],GI50 [1],GI50 [2],GI50 [3],GI50 [4],GI50 [5],GI50 [6],GI50 [7],GI50 [8],GI50 [9],GI50 [10]
Clc1ccc(CN2CCCN(Cc3ccc(Cl)cc3)C2c2cc3ccccc3c3ccccc23)cc1,54.5 µM,> 100 µM,40.3 µM,> 100 µM,> 100 µM,> 100 µM,> 100 µM,56.5 µM,> 100 µM,51 µM,–,–,–,–,–,–,–,–,–,–
COc1ccc2c(c1OC)O/C(=C\c1ncc([N+](=O)[O-])n1C)C2=O,3.43 µM,23.1 µM,2.86 µM,7.87 µM,> 24.1 µM,5.02 µM,16.4 µM,10.4 µM,> 75.2 µM,3.48 µM,0.623 µM,3.69 µM,1.16 µM,1.72 µM,3.26 µM,0.836 µM,3.07 µM,3.32 µM,5.95 µM,1.36 µM
CC1(C)N=C(N)N=C(N)N1c1cccc(CCc2ccccc2)c1,> 68.9 µM,> 100 µM,16.9 µM,> 100 µM,> 100 µM,18.6 µM,> 58.6 µM,96.9 µM,79.5 µM,34.8 µM,1.04 µM,0.696 µM,0.574 µM,> 100 µM,1.9 µM,0.135 µM,1.63 µM,3.57 µM,0.528 µM,0.429 µM
O=C1Nc2ccc3c(c2/C1=C\c1cc2c(cc1Br)OCO2)OCO3,5.32 µM,7.04 µM,2.66 µM,4.97 µM,3.84 µM,–,0.801 µM,1.08 µM,5.14 µM,8.17 µM,0.911 µM,0.552 µM,0.356 µM,0.364 µM,1.52 µM,–,0.27 µM,0.287 µM,1.7 µM,0.369 µM
COc1ccc(C2NC(=S)NC3=C2CCOc2c3ccc3ccccc23)cc1 (stereo not drawn),> 100 µM,> 100 µM,> 100 µM,> 100 µM,> 100 µM,> 100 µM,> 100 µM,> 100 µM,> 100 µM,> 100 µM,> 100 µM,> 100 µM,53.8 µM,32.6 µM,> 100 µM,36.6 µM,12.8 µM,16.6 µM,> 100 µM,46.6 µM
COc1cc2ncnc(Oc3cccc(NC(=O)Nc4cc(C(C)(C)C(F)(F)F)on4)c3)c2cc1OC,8.03 µM and 3.58 µM,> 100 µM,5.71 µM and > 5.57 µM,24.6 µM and > 10 µM,4.67 µM and 4.32 µM,6.9 µM and > 10 µM,11.3 µM and > 10 µM,1.36 µM and 3.62 µM,> 100 µM,12.6 µM and > 7.06 µM,0.179 µM and 0.201 µM,4.5 µM and 4.99 µM,0.103 µM and 0.153 µM,2.99 µM and 2.86 µM,0.948 µM and 0.82 µM,0.197 µM and 0.215 µM,2.6 µM and 2.93 µM,0.322 µM and 1.05 µM,2.15 µM and 2.8 µM,0.37 µM and 0.407 µM
